Assay results: EP1043979B1, “COMPOSITIONS FOR THE TRANSDERMAL AND DERMAL ADMINISTRATION OF BIOLOGICALLY ACTIVE AGENTS” (PULITZER ITALIANA S.r.l., priority 1997, dated 1999)

Assay: In vitro transdermal flux of nitroglycerin from TTS patches, Franz diffusion cells, HPLC of receiving medium
Format: in vitro ADME, human
From the text: The transdermal delivery devices employed in this example and in the following ones were produced according to the following procedure. A matrix layer containing the active substance, the adhesive and, when present, the permeation enhancer and the absorption assistant was obtained by uniformly spreading a solution of the components, with the proper concentration, viscosity and quantitative composition, on the silanised or fluorinated surface of a polyester protective layer. After evaporating the solvent at 70-80°C for 15-20 min. a final layer of a homogeneous thickness was obtained. weighing about 10 mg/cm^2 and having the desired composition. The composition had been preliminarily fixed taking into account the amount of solvent to be removed. During the above operation the adhesive employed underwent the required cross-linking reaction. […]
On the transdermal devices thus produced in vitro release tests were carried out, employing methods well known to this aim (Merrit e. Cooper, J. Controlled Release, 1984, 1, 161), that have been further developed more recently (Reifenrath et al., J. Pharm. Sci., 80, 1991, 526). […] The tested patches were applied to the exposed side of the skin, and the transdermal flux was measured by analysing (by HPLC) the receiving medium. […]

Molecule	activity as enhancer (N-(2-hydroxyethyl)acetamide alone, 3-7% in nitroglycerin TTS (Table 2))	transdermal permeation
CC(=O)NCCO [N-(2-hydroxyethyl)acetamide]	does not possess any significant activity as enhancer	
sorbitan monooleate		relative reduction of the transdermal permeation
